Test results: PubChem BioAssay AID192 (DTP/NCI, 2004)
“And” between values parts separate entries of the source, which are not always exact repeats. Equal values may be shown once. Inconclusive results and toxic doses are left out. Rule for the calls: active = survival T/C of 150% or more; inactive = T/C below 125% in these data.

Test system: BDF1 mice, B16 melanoma ip, median survival T/C
Test: NCI In Vivo Anticancer Drug Screen. Data for tumor model B16 Melanoma (intraperitoneal) in B6D2F1 (BDF1) mice
Conditions: endpoint: median survival time, schedule: Q01DX009 (ip), higher = longer survival
Outline: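 In this screen, activity was judged from survival or tumor size in treated versus vehicle-treated tumor-bearing mice, reported as T/C.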

[1] = dose: 100.0 mg/kg/injection, vehicle: saline with Tween-80
[2] = dose: 100.0 mg/kg/injection, vehicle: Klucel (hydroxypropylcellulose) (HPC)
[3] = dose: 200.0 mg/kg/injection, vehicle: Klucel (hydroxypropylcellulose) (HPC)
[4] = dose: 400.0 mg/kg/injection, vehicle: Klucel (hydroxypropylcellulose) (HPC)

Measured: T/C

CCCCCCCCN(C)N=Nc1ccc(Cl)cc1C(=O)O
inactive: dose: 50.0 mg/kg/injection, vehicle: saline with Tween-80 103 % of control | [1] 107 % of control

CC1NC(=O)NC1=O (stereo not given)
inactive: [2] 90 % of control | [3] 100 % of control | [4] 102 % of control

COC1C(O)CC(OC2CC(Oc3cc4cc5c(c(O)c4c(O)c3C)C(=O)[C@@H](OC3CC(OC4CC(OC6CC(C)(O)C(OC(C)=O)C(C)O6)C(O)C(C)O4)C(O)C(C)O3)[C@H]([C@H](OC)C(=O)[C@@H](O)[C@@H](C)O)C5)OC(C)C2OC(C)=O)OC1C (stereo not given in full)
inactive: dose: 0.01 mg/kg/injection, vehicle: Klucel (hydroxypropylcellulose) (HPC) 111 % of control | dose: 0.02 mg/kg/injection, vehicle: Klucel (hydroxypropylcellulose) (HPC) 111 % of control | dose: 0.04 mg/kg/injection, vehicle: Klucel (hydroxypropylcellulose) (HPC) 123 % of control | dose: 0.32 mg/kg/injection, vehicle: saline 94 % of control | dose: 3.8 micrograms/kg/injection, vehicle: water 111 % of control | dose: 7.5 micrograms/kg/injection, vehicle: water 109 % of control | dose: 15.0 micrograms/kg/injection, vehicle: Klucel (hydroxypropylcellulose) (HPC) 109 % of control | dose: 15.0 micrograms/kg/injection, vehicle: saline 94 % of control | dose: 30.0 micrograms/kg/injection, vehicle: Klucel (hydroxypropylcellulose) (HPC) 96 % of control | dose: 30.0 micrograms/kg/injection, vehicle: saline 88 % of control | dose: 60.0 micrograms/kg/injection, vehicle: saline 100 % of control | dose: 120.0 micrograms/kg/injection, vehicle: Klucel (hydroxypropylcellulose) (HPC) 109 % of control | dose: 120.0 micrograms/kg/injection, vehicle: saline 94 % of control | dose: 240.0 micrograms/kg/injection, vehicle: saline 100 % of control
active: dose: 0.02 mg/kg/injection, vehicle: saline 167 % of control | dose: 0.03 mg/kg/injection, vehicle: saline 152 % of control | dose: 0.04 mg/kg/injection, vehicle: saline 175 % of control | dose: 0.07 mg/kg/injection, vehicle: saline 161 % of control | dose: 0.08 mg/kg/injection, vehicle: saline 154 % of control | dose: 0.13 mg/kg/injection, vehicle: saline 150 % of control | dose: 0.16 mg/kg/injection, vehicle: Klucel (hydroxypropylcellulose) (HPC) 150 % of control and 157 % of control | dose: 0.16 mg/kg/injection, vehicle: saline 152 % of control | dose: 0.25 mg/kg/injection, vehicle: saline 152 % of control | dose: 30.0 micrograms/kg/injection, vehicle: water 159 % of control

C=C1OC(=O)OC1(C)CC(OC)OC (stereo not given)
inactive: [1] 102 % of control | dose: 200.0 mg/kg/injection, vehicle: saline with Tween-80 113 % of control | dose: 400.0 mg/kg/injection, vehicle: saline with Tween-80 108 % of control

Oc1ccc(C2C=CCC2)cc1C1C=CCC1 (stereo not given)
inactive: [2] 99 % of control and 100 % of control | [3] 89 % of control and 96 % of control | [4] 100 % of control and 107 % of control

O=NN(CCCl)C(=O)NCCO
active: dose: 3.12 mg/kg/injection, vehicle: water 176 % of control

CCCCNC(=O)C1C=C2c3cccc4[nH]cc(c34)CC2N(C)C1 (stereo not given)
inactive: dose: 3.12 mg/kg/injection, vehicle: Klucel (hydroxypropylcellulose) (HPC) 93 % of control | dose: 12.5 mg/kg/injection, vehicle: Klucel (hydroxypropylcellulose) (HPC) 91 % of control | dose: 25.0 mg/kg/injection, vehicle: Klucel (hydroxypropylcellulose) (HPC) 93 % of control | dose: 50.0 mg/kg/injection, vehicle: Klucel (hydroxypropylcellulose) (HPC) 96 % of control
